# Results as given in ChEMBL document CHEMBL4825715, “Novel METTL3 Modulators for Treating Acute Myeloid Leukemia (AML)” (ACS Med Chem Lett, 2021).
# How the values were obtained:
# [1] = target: T1, N6-adenosine-methyltransferase catalytic subunit (Homo sapiens, UniProt Q86U44); assay: Inhibition of METTL3 (unknown origin) using 3' biotinylated RNA (UCUGGACUAAA) and 3H-SAM as a substrate preincubated for 5 mins followed by substrate addition incubated for 30 mins by scintillation counting method
# [2] = target: T1, N6-adenosine-methyltransferase catalytic subunit; assay: Inhibition of METTL3-mediated m6A methylation in human […] cells assessed as reduction in mRNA level measured after 24 hrs by LC-MS/MS analysis; type: cell-based, MOLM-13
# T1 sequence (Q86U44 whole entry): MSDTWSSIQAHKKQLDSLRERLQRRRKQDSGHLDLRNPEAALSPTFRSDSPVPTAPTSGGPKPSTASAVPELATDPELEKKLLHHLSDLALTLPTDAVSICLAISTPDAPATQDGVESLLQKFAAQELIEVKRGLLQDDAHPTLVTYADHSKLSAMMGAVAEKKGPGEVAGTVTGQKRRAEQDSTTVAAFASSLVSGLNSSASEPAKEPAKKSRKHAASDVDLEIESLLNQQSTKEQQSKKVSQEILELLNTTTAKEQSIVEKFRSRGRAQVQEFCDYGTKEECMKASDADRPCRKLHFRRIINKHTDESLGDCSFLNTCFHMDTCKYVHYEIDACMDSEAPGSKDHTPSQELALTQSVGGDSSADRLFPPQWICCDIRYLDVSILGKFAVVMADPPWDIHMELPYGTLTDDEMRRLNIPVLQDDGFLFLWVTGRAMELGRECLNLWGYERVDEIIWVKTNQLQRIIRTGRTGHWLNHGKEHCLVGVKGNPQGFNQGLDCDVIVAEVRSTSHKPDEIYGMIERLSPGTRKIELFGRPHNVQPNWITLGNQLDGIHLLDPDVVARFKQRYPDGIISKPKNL
Structure (SMILES),IC50 [1] [µM],IC50 [2] [µM]
CNc1ccc2ccc(OC[C@H]3O[C@@H](n4cc(-c5ccn(C)n5)c5c(N)ncnc54)[C@H](O)[C@@H]3O)cc2n1,< 0.01,< 1
Cc1coc(-c2cn([C@@H]3O[C@H](COc4ccc5ccc(N6CCC6)nc5c4)[C@@H](O)[C@@H]3F)c3ncnc(N)c23)n1,< 0.01,< 1
CCNc1ccc2ccc(OC[C@H]3O[C@@H](n4cc(C5CCCC5)c5c(N)ncnc54)[C@H](O)[C@@H]3O)cc2n1,< 0.01,< 1
Nc1ncnc2c1c([C@@H]1CCCO1)cn2[C@@H]1O[C@H](COc2ccc3ccc(N4CCC4)nc3c2)[C@@H](O)[C@@H]1F,< 0.01,< 1
CNc1ccc2ccc(OC[C@H]3O[C@@H](n4cc(-c5ccc(C)o5)c5c(N)ncnc54)[C@@H](F)[C@@H]3O)cc2n1,< 0.01,< 1
Nc1ncnc2c1c(-n1cccn1)cn2[C@@H]1O[C@H](COc2ccc3ccc(N4CCC4)nc3c2)[C@@H](O)[C@@H]1F,< 0.01,< 1
